Key:
[1] = system: Brain-Specific Receptors of Rats; experiment: Inhibition of the binding of 3H-benzodiazepine to brain-specific receptors of rats; set-up: species or system rat (Wistar); settings: 3H-diazepam 1.5 nM or 3H-flunitrazepam 1.0 nM; rat cortex P2 fraction; test concentration not given
[2] = system: Nonconditioned Passive Avoidance in Rats; experiment: Nonconditioned passive avoidance (conflict) test in rats; type: in vivo, rat (Wistar); set-up: key: Active: considered active if the number of shocks received by the test group is significantly higher than the control group by the Mann-Witney U test; settings: oral or i.p.
Procedure: Another test which has been used to assess anti-anxiety effects is a nonconditioned passive avoidance procedure described by [J. R. Vogel, B. Beer and D. E. Clody, "A Simple and Reliable Conflict Procedure for Testing Anti-Anxiety Agents", Psychopharmacologia, 21, 1-7 (1971)]. A conflict situation is induced in rats by a modification of this method.
Groups of 6 naive, Wistar strain rats, weighing 200-240 g each were deprived of water for 48 hours and food for 24 hours. The test compounds were administered in single or graded, oral or intraperitoneal doses, suspended in a 2% starch vehicle containing 0.5% v/v polyethylene glycol and one drop of polysorbate 80. Control animals received the vehicle alone. At 30 to 60 minutes each rat was placed in an individual plexiglass chamber. Water was available ad libitum from a tap located in the rear of the chamber. A 0.7 milliampere DC shocking current was established between the stainless steel grid floor and the tap. After 20 licks of non-shocked drinking, a shock was delivered for 2 seconds and then further shocks were delivered on a ratio of one shock for 2 seconds for every 20 licks. This was continued for a total of 3 minutes. The number of shocks taken by each rat during the 3 minute interval was recorded and compared to a control group. […]

[3] = system: Clonic Seizures Caused by Pentylenetetrazole in Rats; experiment: Protection against clonic seizures caused by pentylenetetrazole in rats; type: in vivo; settings: Rattus norvegicus, oral or i.p., read-out: % of Rats Protected; for responders at 25 mg/kg: pentylenetetrazole 23 mg/kg i.v. at 30 or 60 min
Summary of the method: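 Rats (at least 4 per group) given single or graded oral or intraperitoneal doses in starch/PEG/Polysorbate 80 vehicle. After 30 or 60 min, pentylenetetrazole 23 mg/kg i.v. was given, a dose expected to induce clonic seizures in 99% of unprotected rats. Protection from convulsions was scored.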

[4] = system: Locomotor Activity in Rats; experiment: Effects on locomotor activity in rats; type: in vivo; settings: Rattus norvegicus, 1 h; dose causing 50% decrease in mean activity counts vs vehicle; oral, 60 min; read-out: MDD50
Procedure: Groups of 6 rats were treated orally with vehicle (5 ml/kg) or graded doses of the test compounds. Sixty minutes later, individual rats were placed in Actophotometers and locomotor activity was measured for 5 minutes after a brief (30 sec.) habituation period. Motor Activity Counts (number of crossings of the photo cells) were recorded for each rat, and mean activity counts were calculated for each treatment group. The dose causing a 50% decrease in mean activity counts compared with the vehicle group (MDD50) was calculated from a linear regression equation.

[5] = system: Ability of Rats to Remain on an Inclined Screen; experiment: Effect on ability of rats to remain on an inclined screen; type: in vivo; settings: Rattus norvegicus, 65 min; dose necessary to cause 50% of animals to fall off; oral; 60° screen, 65 min after dosing
Procedure: The first test measures the effect of representative compounds on the ability of rats to remain on an inclined screen. Groups of at least 6 rats were treated orally with graded doses of test compounds or vehicle and placed on a wire mesh screen (inclined at an angle of 60° from a horizontal level) 65 minutes later. The number of rats falling off the screen within 30 minutes was recorded. The ED50 (dose necessary to cause 50% of the animals tested to fall off) was calculated according to the linear arc-sine transformation method of Finney, D. J. Statistical Methods in Biological Assay, 2nd Ed., Hafner, N. Y., 1964, pp. 454 ff. Compounds were dissolved or suspended in a 2% aqueous starch suspension containing 5% polyethylene glycol 400 and a drop of polysorbate 80, and administered in a constant volume of 5 ml/kg.

[6] = pentylenetetrazole 23 mg/kg i.v.

| Compound | % Inhibition [1] [%] | Result (nonconditioned passive avoidance) ([2]; dose 25.0 mg/kg) | responders at 25 mg/kg [3] [%] | also measured |
| --- | --- | --- | --- | --- |
| O=C(c1ccoc1)c1cnn2c(-c3cccnc3)ccnc12 [3-furanyl[7-(3-pyridinyl)pyrazolo[1,5-a]pyrimidin-3-yl]methanone] | 77 | Active | 100 | – |
| Cc1cccc(C(=O)c2cnn3c(-c4cccnc4)ccnc23)c1 [(3-methylphenyl)[7-(3-pyridinyl)pyrazolo[1,5-a]pyrimidin-3-yl]methanone] | 70 | Active | 100 | – |
| O=C(c1ccccn1)c1cnn2c(-c3ccc(F)cc3)ccnc12 [[7-(4-fluorophenyl)pyrazolo[1,5-a]pyrimidin-3-yl]-2-pyridinyl-methanone] | 64 | Active | 50 | – |
| O=C(c1ccco1)c1cnn2c(-c3ccncc3)ccnc12 [2-furanyl[7-(4-pyridinyl)pyrazolo[1,5-a]pyrimidin-3-yl]methanone] | 19 | Active | 25 | – |
| O=C(c1cccc(C(F)(F)F)c1)c1cnn2c(-c3cccnc3)ccnc12 [[7-(3-pyridinyl)pyrazolo[1,5-a]pyrimidin-3-yl][3-(trifluoromethyl)phenyl]methanone] | 38 | Active | – | – |
| O=C(c1ccc(F)cc1)c1cnn2c(-c3cccc(C(F)(F)F)c3)ccnc12 [(4-fluorophenyl)[7-[3-(trifluoromethyl)phenyl]pyrazolo[1,5-a]pyrimidin-3-yl]methanone] | 50 | Active | – | responders at 12.5 mg/kg [3, 6]: 38% |
| O=C(c1ccncc1)c1cnn2c(-c3ccncc3)ccnc12 [4-pyridinyl[7-(4-pyridinyl)pyrazolo[1,5-a]pyrimidin-3-yl]methanone] | 11 | Active | – | – |
| O=C(c1ccccn1)c1cnn2c(-c3cccnc3)ccnc12 [2-Pyridinyl[7-(3-pyridinyl)pyrazolo[1,5-a]pyrimidin-3-yl]methanone] | 98 | Active | 75 | – |
| O=C(c1ccc(F)cc1)c1cnn2c(-c3ccc(F)cc3)ccnc12 [(4-fluorophenyl)[7-(4-fluorophenyl)pyrazolo[1,5-a]pyrimidin-3-yl]methanone] | 34 | Active | 75 | – |
| O=C(c1ccccc1)c1cnn2c(-c3ccc(F)cc3)ccnc12 [[7-(4-fluorophenyl)pyrazolo[1,5-a]pyrimidin-3-yl]phenyl-methanone] | 18 | Active | 100 | – |
| O=C(c1cccs1)c1cnn2c(-c3cccc(C(F)(F)F)c3)ccnc12 [2-thienyl[7-[3-(trifluoromethyl)phenyl]pyrazolo[1,5-a]pyrimidin-3-yl]methanone] | 99 | Active | 100 | – |
| Cc1cnc2c(C(=O)c3ccccc3)cnn2c1-c1ccncc1 [[6-methyl-7-(4-pyridinyl)pyrazolo[1,5-a]pyrimidin-3-yl]phenyl-methanone] | 56 | Active | 100 | – |
| O=C(c1cccc(F)c1)c1cnn2c(-c3cccnc3)ccnc12 [(3-fluorophenyl)[7-(3-pyridinyl)pyrazolo[1,5-a]pyrimidin-3-yl]methanone] | 20 | Active | 100 | – |
| CCC(=O)N(CC)c1cccc(-c2ccnc3c(C(=O)c4ccccc4)cnn23)c1 [N-[3-(3-Benzoylpyrazolo[1,5-a]pyrimidin-7-yl)phenyl]N-ethylpropanamide] | – | – | – | Result (nonconditioned passive avoidance) ([2]; dose 12.5 mg/kg): Active; responders at 12.5 mg/kg [3, 6]: 100% |
| COc1ccc(C(=O)c2cnn3c(-c4cccnc4)ccnc23)cc1OC [(3,4-dimethoxyphenyl)[7-(3-pyridinyl)pyrazolo[1,5-a]pyrimidin-3-yl]methanone] | 75 | Active | 87 | – |
| CCC(=O)N(C)c1cccc(-c2ccnc3c(C(=O)c4ccco4)cnn23)c1 [N-[3-[3-(2-Furanylcarbonyl)pyrazolo[1,5-a]pyrimidin-7-yl]phenyl]-N-methylpropanamide] | – | Active | – | responders at 6 mg/kg ([3]; dose 6.0 mg/kg, pentylenetetrazole 23 mg/kg i.v.): 100% |
| CCN(C(C)=O)c1cccc(-c2ccnc3c(C(=O)c4ccccc4)cnn23)c1 [N-[3-(3-Benzoylpyrazolo[1,5-a]pyrimidin-7-yl)phenyl]-N-ethylacetamide] | – | Active | – | responders at 6.2 mg/kg ([3]; dose 6.2 mg/kg, pentylenetetrazole 23 mg/kg i.v.): 100% |
| CN(C)c1ccc(C(=O)c2cnn3c(-c4cccc(C(F)(F)F)c4)ccnc23)cc1 [[4-(dimethylamino)phenyl][7-[3-(trifluoromethyl)phenyl]pyrazolo[1,5-a]pyrimidin-3-yl]methanone] | – | Active | 100 | – |
| O=C(c1ccccn1)c1cnn2c(-c3ccncc3)ccnc12 [2-pyridinyl[7-(4-pyridinyl)pyrazolo[1,5-a]pyrimidin-3-yl]methanone] | 29 | Active | 100 | ED50 [4]: 101 mg/kg |
| O=C(c1ccccc1F)c1cnn2c(-c3cccc(C(F)(F)F)c3)ccnc12 [(2-fluorophenyl)[7-[3-(trifluoromethyl)phenyl]pyrazolo[1,5-a]pyrimidin-3-yl]methanone] | – | Active | 50 | – |
| O=C(c1ccccc1F)c1cnn2c(-c3ccncc3)ccnc12 [(2-fluorophenyl)[7-(4-pyridinyl)pyrazolo[1,5-a]pyrimidin-3-yl]methanone] | – | Active | 50 | – |
| O=C(c1ccccc1)c1cnn2c(-c3cc[n+]([O-])cc3)ccnc12 [Phenyl[7-(4-pyridinyl)pyrazolo[1,5-a]pyrimidin-3-yl]methanone, pyridine-1-oxide] | 39 | Active | 100 | – |
| COc1ccc(C(=O)c2cnn3c(-c4cccnc4)ccnc23)cc1 [(4-Methoxyphenyl)[7-(3-pyridinyl)pyrazolo[1,5-a]pyrimidin-3-yl]methanone] | – | – | 100 | Result (nonconditioned passive avoidance) ([2]; dose 12.5 mg/kg): Active; ED50 [5]: 11.9 mg/kg; ED50 [4]: 10.5 mg/kg |
| O=C(c1cccc(F)c1)c1cnn2c(-c3ccncc3)ccnc12 [(3-fluorophenyl)[7-(4-pyridinyl)pyrazolo[1,5-a]pyrimidin-3-yl]methanone] | – | Active | 100 | – |
| CCNc1cccc(-c2ccnc3c(C(=O)c4ccco4)cnn23)c1 [[7-[3-(Ethylamino)phenyl]pyrazolo[1,5-a]pyrimidin-3-yl]-2-furanylmethanone] | – | Active | 100 | – |
| O=C(c1ccc(Cl)cc1)c1cnn2c(-c3cccc(C(F)(F)F)c3)ccnc12 [(4-chlorophenyl)[7-[3-(trifluoromethyl)phenyl]pyrazolo[1,5-a]pyrimidin-3-yl]methanone] | 81 | Active | – | – |

Reference: patent US4521422A, “Aryl and heteroaryl[7-(aryl and heteroaryl)pyrazolo[1,5-a]pyrimidin-3-yl]methanones” (American Cyanamid Company, priority 1984, dated 1985)
